Earlier results, collected in patent US5977116A, “Piperazine, piperidine and tetrahydropyridine derivatives” (Merck Sharp & Dohme Ltd., priority 1995, dated 1999).

System: human 5-HT1Dα and 5-HT1Dβ receptor subtypes
Settings: cf. WO-A-91/17174, Table 1

discrimination between human 5-HT1Dα and 5-HT1Dβ receptor subtypes: barely discriminates
SMILES: CNS(=O)(=O)Cc1ccc2[nH]cc(CCN(C)C)c2c1 [sumatriptan]
